Data published in patent publication US12611443B2, “Methods and compositions related to therapeutic peptides for cancer therapy” (THE UNIVERSITY OF CHICAGO, priority 2018, dated 2026).
Entries after “also recorded” stand apart in the source; their conditions may differ.

Key:
[1] = test system: human/murine cancer cells; assay: In vitro cell viability of cancer cells (calcein-AM, CASP3, ANXA5); type: cell-based; conditions: ELANE 3 μg/ml
Excerpt: Cell lines. The ovarian cancer cell lines—CAOV3, OVCAR3, OVCAR4, OVCAR5, A2780, A2780/CP70, HeyA8, TykNu, SKOV3, ID8, and ID8p53-/- were a gift from Dr. Ernst Lengyel, University of Chicago. The breast cancer cell lines—MDA-MB-231, MDA-MB-231.BM1, MCF-7, M6C, E0771, and E0771.LMB were a gift from Dr. Marsha Rosner, University of Chicago. The colon carcinoma cell line RKO, glioblastoma cancer cell line T98G, osteosarcoma cell lines U-2OS and Saos-2, and the hepatocellular carcinoma cell line HepG2 were a gift from Dr. Kay McLeod, University of Chicago. The lung cancer cell line NCI-H552 was a gift from Dr. Stephanie Huang, University of Chicago, and A549 and LLC1 cells were purchased from ATTC. The melanoma cell lines—B16F10, Mel888, Mel1106, and SK-MEL-28 cells were a gift from Dr. Thomas Gajewski, University of Chicago. The pancreatic cancer cell line PANC1 was a gift from Dr. Yamuna Krishnan, University of Chicago. The leukemia cell line K562 was a gift from Dr. Amittha Wickrema, University of Chicago.
The prostate cancer cell lines—CWR22Rv1, LAPC4, and LNCaP were a gift from Dr. Donald Vander Griend, University of Chicago. The neuroblastoma cell lines—SK-N-BE(2) and NBL-WN cells were a gift from Dr. Lucy Godley, University of Chicago.
Neutrophil media collections. Freshly isolated human or murine neutrophils were plated in serum-free DMEM for 24 h. Conditioned media was collected, spun at 500×g for 5 min, and media protein levels were determined with a Bradford assay (Biorad).
PMN media manipulations. For boiling, PMN media was boiled at 95° C. for 5 min and spun at 15,000×g for 10 min to remove precipitated proteins. For dialysis, PMN media was placed into a Slide-a-Lyzer™ cassette (3.5 kDa cutoff, ThermoFisher Scientific) and dialyzed against 2×4L of PBS at 4° C. for 4 h. For PMSF-inactivation, PMN media was treated with PMSF (1 mM, Sigma) or A1AT (42 nM, Athens Research & Technology) and incubated at room temperature for up to 2 h. Residual PMSF was eliminated with a PD-10 desalting column (GE Healthcare Life). Inhibition of ELANE catalytic activity was confirmed using a chromogenic substrate activity assay (see below). For serum-spiking experiments, human, mouse, or fetal bovine serum (1% or 10%) was added to PMN media prior to or after exposing cancer cells. For immune-depletion studies, ELANE or ECP were immunoprecipitated using anti-ELANE (N2C3, GeneTx) or anti-ECP (MB S2535165, MyBioSource) coupled to Pierce™ Protein A/G Magnetic Beads (ThermoFisher Scientific).
In vitro cell viability assays. […] Luminescence was measured using a Victor X3 luminometer (PerkinElmer).

[2] = test system: hCD95; assay: Cleavage of recombinant human CD95 proteins/peptides by ELANE (SDS-PAGE, mass spectrometry); type: biochemical; conditions: recombinant aa 1-173 and aa 212-335
Experimental: Identification of ELANE cleavage sites in CD95 by mass spectrometry. Recombinant human C-terminal CD95 (aa 212-335, MyBioSource, 10 μg) or recombinant N-terminal CD95 (aa 1-173, ThermoFisher Scientific, 10 μg) were digested with human ELANE (0.1 μg) for 2 h at 37° C., and reactions were stopped with SDS-PAGE loading buffer. Proteins were run on 20% SDS-PAGE gels, stained with Coomassie Blue (ThermoFisher Scientific), and bands were excised for mass spectrometric analyses. Proteins were extracted from excised bands.
Analysis of recombinant peptides by mass spectrometry. Recombinant peptides (10 μM) corresponding to aa 214-([…])-231 (SEQ ID NO:6) or 317-([…])-335 (SEQ ID NO:7) of human CD95 (ThermoFisher Scientific) were incubated with ELANE (0.1-0.2 μM) at 37° C. for 15-30 min. Reactions were stopped with 0.1% formic acid.

[3] = test system: cancer cells; assay: ELANE internalization by cancer cells and effect of endocytosis inhibitor; type: cell-based; conditions: cancer cell lysates, 30 mins
Experimental: FIGS. 1A-1K. ELANE cleaves CD95 to selectively kill cancer cells. (A): Heatmap summary of ELANE's effects on survival, stress, and apoptosis pathways in cancer cells and healthy cells. (B-C): Cancer cells were treated with ELANE (100 nM) and CD95 cleavage was assessed by western blotting using anti-N-terminal (B) or anti-C-terminal antibodies (C). *, lower molecular weight CD95 fragment. (D): Cancer cells or non-cancer cells were transduced to overexpress CD95 proteins, and effects on ELANE-mediated apoptosis were quantified by ANXAS at 30 min. n=2/group. See FIG. 1I for transduction and CD95 over-expression. (E): Cleavage of recombinant human CD95 N-terminal (aa 1-173) or C-terminal (aa 212-335) proteins by ELANE was assessed by SDS-PAGE and Coomassie blue staining. (F): Bands from (E) were digested with trypsin and analyzed by mass spectrometry to identify putative ELANE cleavage sites (i.e., peptides with non-tryptic ends). Major non-tryptic peptides were quantified by ion chromatograms. (G): Schematic of ELANE cleavage sites in CD95. […] (H): Cleavage of recombinant peptides corresponding to aa 214-231 and aa 317-335 in CD95 by ELANE was monitored by mass spectrometry. (I): Cancer cells or non-cancer cells were treated with fluorescein-labeled ELANE for 10 min and uptake was visualized by immunofluorescence. (J): ELANE catalytic activity in cancer cell lysates following exposure to ELANE for 30 mins in the presence and absence of Dynasore (60 μM endocytosis inhibitor). Effect of Dynasore on cancer cell killing capability of ELANE (measured by calcein-AM). n=6/group. (K): Cancer cells or non-cancer cells were transduced to overexpress various CD95 proteins, and cell viability in the absence of ELANE was determined by calcein-AM. n=10/group. *, p<0.05 Student's t-test.

For “ELANE: neutrophil elastase, a serine protease released by human PMNs”, which “apoptosis in cancer cell lines” value [1] is on record?
Its value is “effectively induced apoptosis in all cancer cell lines tested”.

What about the “cleavage of CD95 N- or C-terminal domain” value [2] of the same substance?
The value was “preferentially cleaved the C-terminal domain; also recorded: degrades the C-terminal domain of purified CD95”.

What about the “catalytic activity of internalized ELANE” value [3] of the same substance?
The value was “retained its catalytic activity”.
